In patent US6960470B1 (priority 1998, dated 2005):

Tested on: hippocampal slices from wt and Δ9 mutant (PS-1) animals
Format: cell-based
Conditions: flunitrazepam in the bathing medium; Δ9 mutant slices

SMILES: CN1C(=O)CN=C(c2ccccc2F)c2cc([N+](=O)[O-])ccc21 [flunitrazepam]
- potentiation in mutants (+FLU) compared with the wt (−FLU): potentiation to almost the wt levels
